Test system: mouse long-term hematopoietic stem cells
Assay: Reproducibility and concentration dependence test: 1-week culture of sorted Hoxb5-tri-mCherry mouse long-term hematopoietic stem cells, flow cytometry
Assay type: cell-based
Conditions: Table 4, day 7 of culture, n=2
Experimental: Mice with insertion of a nucleic acid sequence containing three copies of a gene encoding the fluorescent protein mCherry to the C terminus of the mouse endogenous HoxB5 gene (Hoxb5-tri-mCherry) were used (triple-mCherry Hoxb5 knock-in mice; Non Patent Literature 1). The mice were housed under environmental conditions such that the room temperature and the humidity were 20 to 26° C. and 40 to 70%, respectively, under light for 12 hours and under dark for 12 hours (illumination: 8:00 a.m. to 8:00 p.m.).
Bone marrow cells were collected from the tibia, femur, humerus, and pelvis in each side of each of the mice, and gathered in a mortar. A buffer obtained by adding thermally deactivated bovine serum (manufactured by Gibco) at a final concentration of 2% and EDTA at a final concentration of 2 mM to Ca^2+-free and Mg^2+-free PBS was added, and the resultant was broken with a pestle to obtain a cell population including hematopoietic stem cells.
First, the thus-obtained cell population including hematopoietic stem cells was passed through strainers (meshes) of 100 μm, 70 μm, and 40 μm. The cell population was stained with an APC-binding anti-c-Kit (2B8) and fractionated with anti-APC magnetic beads and an LS column (both manufactured by Miltenyi Biotec) to obtain a cell population enriched with hematopoietic stem cells and progenitor cells.
Subsequently, cells being c-Kit-positive were stained with antibodies for the following cell surface markers.
Staining with the antibodies was performed at 4° C., and the cells were incubated for 30 minutes. For staining with the CD34 antibody, the cells were incubated for 90 minutes. Dead cell staining was performed with SYTOX Red Dead Cell Stain (manufactured by Life Technologies) in accordance with a method recommended by the manufacturer.
Flow cytometry analysis and cell classification (cell sorting) were performed with a FACS Aria II cell sorter (manufactured by BD Biosciences), wherein Lineage-negative, c-Kit-positive, Sca-1-positive, Flk2-negative, CD34-negative or weakly CD34-positive, CD150-positive, and mCherry-positive fractions were regarded as long-term hematopoietic stem cells, and analysis was performed with the software FlowJo (manufactured by Tree Star, Inc.).
The cells after classification were seeded in a 96-well plate. A cell culture medium was prepared by adding Stem Cell Factor (SCF, manufactured by PeproTech, Inc.) and Thrombopoietin (TPO, manufactured by PeproTech, Inc.) to StemSpan SFEM culture medium (manufactured by […] Technologies Inc.) and added in advance to a cell culture 96-well plate (manufactured by BD Biosciences) at 100 μL/well, and the cells sorted with the FACS Aria II cell sorter (BD Biosciences) were then seeded at 10 cells/well.
[…] Thereafter, the cells were cultured in a CO2 incubator under conditions of 37° C. and 5% CO2 for 1 week.
After culture, the cells were stained with the antibodies for the surface markers c-Kit and Sca-1, Ter-119, B220, CD3, CD4, CD8a, Gr-1, and CD11b, and the ratio and post-growth cell count of a KLS fraction (c-Kit^+, Lin^−, Sca-1^+) or an mCherry-positive fraction given with use of a FACS Aria II cell sorter were analyzed by using FlowJo (BD Biosciences). The mCherry-positive fraction is a cell fraction expressing the Hoxb5 gene, and the KLS fraction is a cell fraction being c-Kit-positive, Lin-negative, and Sca-1-positive, and includes hematopoietic stem cells and multipotent progenitor cells as main components. […]

Row | SMILES | KLS-positive rate (compound 0.1 μM) | Viable cell count (compound 0.1 μM) | mCherry-positive rate (compound 0.1 μM) | KLS-positive rate (compound 0.3 μM) | Viable cell count (compound 0.3 μM) | mCherry-positive rate (compound 0.3 μM) | KLS-positive rate (compound 1 μM) | Viable cell count (compound 1 μM) | mCherry-positive rate (compound 1 μM) | KLS-positive rate (compound 3 μM) | Viable cell count (compound 3 μM) | mCherry-positive rate (compound 3 μM) | KLS-positive rate (compound 10 μM) | Viable cell count (compound 10 μM) | mCherry-positive rate (compound 10 μM)
1 | C[C@H]1[C@H](N2CCOCC2)O[C@@H]2O[C@@]3(C)CC[C@H]4[C@H](C)CC[C@@H]1[C@@]24OO3 [Example 1-13, 4-[(3R,5aS,6R,8aS,9R,10R,12R,12aR)-3,6,9-Trimethyldecahydro-12H-3,12-epoxypyrano[4,3-j][1,2]benzodioxepin-10-yl]morpholine] | 22.1% | 201.0 cell | 24.3% | 14.7% | 605.0 cell | 2.9% | 21.0% | 136.5 cell | 6.7% | 0.0% | 0.0 cell | 0.0% | 0.0% | 0.0 cell | 0.0%
2 | CC(C)O[C@H]1O[C@@H]2O[C@@]3(C)CC[C@H]4[C@H](C)CC[C@@H]([C@H]1C)[C@@]24OO3 [Example 1-19, (3R,5aS,6R,8aS,9R,10S,12R,12aR)-3,6,9-Trimethyl-10-[(propan-2-yl)oxy]decahydro-12H-3,12-epoxypyrano[4,3-j][1,2]benzodioxepine] | 9.5% | 469.0 cell | 56.3% | 41.7% | 151.0 cell | 96.2% | 4.2% | 6.0 cell | 50.0% | 0.0% | 0.0 cell | 0.0% | 0.0% | 0.5 cell | 50.0%
3 | C[C@H]1[C@H](N(C)C)O[C@@H]2O[C@@]3(C)CC[C@H]4[C@H](C)CC[C@@H]1[C@@]24OO3 [Example 1-12, (3R,5aS,6R,8aS,9R,10R,12R,12aR)—N,N,3,6,9-Pentamethyldecahydro-12H-3,12-epoxypyrano[4,3-j][1,2]benzodioxepin-10-amine] | 27.2% | 450.5 cell | 7.3% | 15.8% | 262.0 cell | 15.2% | 19.3% | 431.5 cell | 8.2% | 14.4% | 217.0 cell | 19.4% | 36.6% | 234.5 cell | 12.1%
4 | C[C@H]1[C@@H](c2ccccc2)O[C@@H]2O[C@@]3(C)CC[C@H]4[C@H](C)CC[C@@H]1[C@@]24OO3 [Example 1-2, (3R,5aS,6R,8aS,9R,10S,12R,12aR)-3,6,9-Trimethyl-10-phenyldecahydro-12H-3,12-epoxypyrano[4,3-j][1,2]benzodioxepine] | 16.0% | 340.5 cell | 59.9% | 50.0% | 0.5 cell | 50.0% | 0.0% | 0.5 cell | 0.0% | 0.0% | 0.5 cell | 50.0% | 0.0% | 0.0 cell | 0.0%
5 | CS[C@H]1O[C@@H]2O[C@@]3(C)CC[C@H]4[C@H](C)CC[C@@H]([C@H]1C)[C@@]24OO3 [Example 1-4, (3R,5aS,6R,8aS,9R,10R,12S,12aR)-3,6,9-trimethyl-10-(methylsulfanyl)decahydro-12H-3,12-epoxypyrano[4,3-j][1,2]benzodioxepine] | 17.2% | 353.0 cell | 8.0% | 37.9% | 103.0 cell | 44.7% | 31.1% | 181.5 cell | 85.2% | 30.7% | 87.5 cell | 100.0% | 61.4% | 7.5 cell | 90.9%
6 | CC(=O)N[C@@H]1O[C@@H]2O[C@@]3(C)CC[C@H]4[C@H](C)CC[C@@H]([C@H]1C)[C@@]24OO3 [Example 1-10, N-[(3R,5aS,6R,8aS,9R,10R,12R,12aR)-3,6,9-Trimethyldecahydro-12H-3,12-epoxypyrano[4,3-j][1,2]benzodioxepin-10-yl]acetamide] | 19.7% | 717.5 cell | 6.5% | 23.1% | 387.0 cell | 16.5% | 32.9% | 325.5 cell | 9.1% | 33.1% | 579.0 cell | 38.5% | 53.1% | 46.5 cell | 99.3%
7 | CC(=O)OCCOC1O[C@@H]2O[C@@]3(C)CC[C@H]4[C@H](C)CC[C@@H]([C@H]1C)[C@@]24OO3 (stereo in doubt) [Example 1-26, 2-{[(3R,5aS,6R,8aS,9R,10S,12R,12aR)-3,6,9-Trimethyldecahydro-12H-3,12-epoxypyrano[4,3-j][1,2]benzodioxepin-10-yl]oxy}ethyl acetate] | 56.1% | 13.5 cell | 80.7% | 68.5% | 48.5 cell | 95.0% | 55.4% | 20.0 cell | 96.7% | 26.9% | 43.5 cell | 100.0% | 28.9% | 30.5 cell | 100.0%
8 | C[C@H]1[C@H](n2cc(-c3ccccc3)nn2)O[C@@H]2O[C@@]3(C)CC[C@H]4[C@H](C)CC[C@@H]1[C@@]24OO3 [Example 1-9, 4-Phenyl-1-[(3R,5aS,6R,8aS,9R,10R,12R,12aR)-3,6,9-trimethyldecahydro-12H-3,12-epoxypyrano[4,3-j][1,2]benzodioxepin-10-yl]-1H-1,2,3-triazole] | 10.6% | 627.5 cell | 5.9% | 31.1% | 500.0 cell | 4.5% | 34.3% | 625.0 cell | 9.4% | 14.1% | 479.0 cell | 8.1% | 27.1% | 491.5 cell | 11.4%
9 | CC(=O)O[C@@H]1O[C@@H]2O[C@@]3(C)CC[C@H]4[C@H](C)CC[C@@H]([C@H]1C)[C@@]24OO3 [Example 1-14, (3R,5aS,6R,8aS,9R,10S,12R,12aR)-3,6,9-Trimethyldecahydro-12H-3,12-epoxypyrano[4,3-j][1,2]benzodioxepin-10-yl acetate] | 20.6% | 497.5 cell | 0.2% | 30.1% | 340.0 cell | 9.0% | 47.3% | 119.0 cell | 22.1% | 50.0% | 1.0 cell | 100.0% | 0.0% | 0.5 cell | 0.0%
